Data as given in the supplement of paper PMC11451515.

Assays:
Settings in all cases: 48 h
SEM cells [1] = assay: cell viability relative to DMSO control; higher = less cytotoxic
Method in brief: (§1)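 NOMO1 or SEM (500 cells/well) or P12-Ichikawa (1000 cells/well) leukemia cells were adapted for at least four passages in each medium. They were seeded in 1536-well plates (5 μl) and pin-dosed with library compounds in DMSO over an 11-point threefold series, 47 μM to 0.79 nM. CellTiter-Glo One luminescence was read after 48 h at 37°C. Viability is the per-plate percentage relative to DMSO wells, with cell-free wells as background.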

NOMO1 [2] = assay: AUC of viability dose-response curve (% viability x log10 dose units); higher = less sensitive
Method in brief: (§2)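 Medium-adapted leukemia cells in 1536-well plates, at 500 or 1000 cells/well, were incubated for 48 h at 37°C with library compounds in DMSO at 11 threefold doses from 47 μM to 0.79 nM. CellTiter-Glo One luminescence normalised per plate to DMSO and cell-free wells was fitted with a four-parameter log-logistic model over log10 doses. Area under the curve was integrated from this fit by trapezoidal rule, with curves beyond full viability scaled and failed quality-control curves removed.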

P12-Ichikawa [3] = assay: as above
Method in brief: as §2

SEM cells [4] = assay: as above
Method in brief: as §2

NOMO1 [5] = assay: cell viability relative to DMSO control; higher = less cytotoxic
Method in brief: as §1

P12-Ichikawa [6] = assay: as above
Method in brief: as §1

CNC(=O)c1cc(Oc2ccc(NC(=O)Nc3ccc(Cl)c(C(F)(F)F)c3)cc2)ccn1
cell viability [%], SEM cells [1]
Settings	RPMI 5 mM glucose + 10% FBS	RPMI 5 mM glucose + 10% dialyzed FBS
0.000781 µM	108	109
0.00234 µM	112	108
0.00702 µM	89.1	98.8
0.0211 µM	89.8	79.3
0.0632 µM	70.8	64.7
0.19 µM	57.1	57.8
0.569 µM	54	59.7
1.71 µM	75.3	63.8
5.12 µM	63.9	72.1
15.4 µM	63	68.9
46.1 µM	5.7	11.6

AUC of viability dose-response curve
Settings	NOMO1 [2]	P12-Ichikawa [3]	SEM cells [4]
HPLM + 10% dialyzed FBS	445	457	278
RPMI 5 mM glucose + 10% FBS	448	448	313
RPMI 5 mM glucose + 10% dialyzed FBS	432	448	317

NC(=O)c1ccc(-c2nc(-c3ccc4c(c3)OCO4)c(-c3ccccn3)[nH]2)cc1
cell viability [%]
Settings	NOMO1 [5]	P12-Ichikawa [6]	SEM cells [1]
HPLM + 10% dialyzed FBS, 0.000781 µM	114	124	123
HPLM + 10% dialyzed FBS, 0.00234 µM	135	124	116
HPLM + 10% dialyzed FBS, 0.00702 µM	118	123	128
HPLM + 10% dialyzed FBS, 0.0211 µM	134	107	25.6
HPLM + 10% dialyzed FBS, 0.0632 µM	118	127	130
HPLM + 10% dialyzed FBS, 0.19 µM	132	123	121
HPLM + 10% dialyzed FBS, 0.569 µM	119	116	124
HPLM + 10% dialyzed FBS, 1.71 µM	123	114	125
HPLM + 10% dialyzed FBS, 5.12 µM	121	110	128
HPLM + 10% dialyzed FBS, 15.4 µM	120	112	129
HPLM + 10% dialyzed FBS, 46.1 µM	124	100	122
RPMI 5 mM glucose + 10% FBS, 0.000781 µM	121	122	93.4
RPMI 5 mM glucose + 10% FBS, 0.00234 µM	112	130	85.5
RPMI 5 mM glucose + 10% FBS, 0.00702 µM	127	116	98.2
RPMI 5 mM glucose + 10% FBS, 0.0211 µM	113	109	9.45
RPMI 5 mM glucose + 10% FBS, 0.0632 µM	126	118	89.5
RPMI 5 mM glucose + 10% FBS, 0.19 µM	111	111	86.8
RPMI 5 mM glucose + 10% FBS, 0.569 µM	124	108	92.1
RPMI 5 mM glucose + 10% FBS, 1.71 µM	109	116	93.7
RPMI 5 mM glucose + 10% FBS, 5.12 µM	108	100	102
RPMI 5 mM glucose + 10% FBS, 15.4 µM	125	107	86.3
RPMI 5 mM glucose + 10% FBS, 46.1 µM	112	93.8	66.9
RPMI 5 mM glucose + 10% dialyzed FBS, 0.000781 µM	117	–	108
RPMI 5 mM glucose + 10% dialyzed FBS, 0.00234 µM	108	–	123
RPMI 5 mM glucose + 10% dialyzed FBS, 0.00702 µM	117	–	110
RPMI 5 mM glucose + 10% dialyzed FBS, 0.0211 µM	114	–	18.9
RPMI 5 mM glucose + 10% dialyzed FBS, 0.0632 µM	116	–	120
RPMI 5 mM glucose + 10% dialyzed FBS, 0.19 µM	110	–	111
RPMI 5 mM glucose + 10% dialyzed FBS, 0.569 µM	119	–	128
RPMI 5 mM glucose + 10% dialyzed FBS, 1.71 µM	116	–	131
RPMI 5 mM glucose + 10% dialyzed FBS, 5.12 µM	109	–	123
RPMI 5 mM glucose + 10% dialyzed FBS, 15.4 µM	113	–	134
RPMI 5 mM glucose + 10% dialyzed FBS, 46.1 µM	105	–	102

AUC of viability dose-response curve
Settings	HPLM + 10% dialyzed FBS	RPMI 5 mM glucose + 10% FBS	RPMI 5 mM glucose + 10% dialyzed FBS
NOMO1 [2]	473	466	472
P12-Ichikawa [3]	457	429	452

CCCCCCCCCCCCCCCC(=O)O[C@@H]1[C@@H](O)[C@@H](O)[C@@H]([C@H](NC(=O)[C@@H]2C[C@@H](CCC)CN2C)[C@H](C)Cl)O[C@@H]1SC.Cl
AUC of viability dose-response curve
Settings	NOMO1 [2]	P12-Ichikawa [3]	SEM cells [4]
HPLM + 10% dialyzed FBS	426	452	470
RPMI 5 mM glucose + 10% FBS	423	456	469
RPMI 5 mM glucose + 10% dialyzed FBS	425	442	465

Cc1ccc(NC(=O)c2cccc(N(C)C)c2)cc1NC(=O)c1ccc(O)cc1
cell viability [%]
Settings	HPLM + 10% dialyzed FBS	RPMI 5 mM glucose + 10% FBS	RPMI 5 mM glucose + 10% dialyzed FBS
NOMO1 [5], 0.000781 µM	127	114	110
NOMO1 [5], 0.00234 µM	119	110	114
NOMO1 [5], 0.00702 µM	115	107	115
NOMO1 [5], 0.0211 µM	121	108	121
NOMO1 [5], 0.0632 µM	151	113	116
NOMO1 [5], 0.19 µM	136	109	110
NOMO1 [5], 0.569 µM	146	121	116
NOMO1 [5], 1.71 µM	122	118	126
NOMO1 [5], 5.12 µM	120	118	138
NOMO1 [5], 15.4 µM	136	121	108
NOMO1 [5], 46.1 µM	105	106	107
P12-Ichikawa [6], 0.000781 µM	120	114	–
P12-Ichikawa [6], 0.00234 µM	120	122	–
P12-Ichikawa [6], 0.00702 µM	118	120	–
P12-Ichikawa [6], 0.0211 µM	116	127	–
P12-Ichikawa [6], 0.0632 µM	111	113	–
P12-Ichikawa [6], 0.19 µM	116	111	–
P12-Ichikawa [6], 0.569 µM	119	119	–
P12-Ichikawa [6], 1.71 µM	108	113	–
P12-Ichikawa [6], 5.12 µM	108	113	–
P12-Ichikawa [6], 15.4 µM	108	102	–
P12-Ichikawa [6], 46.1 µM	96.7	95.2	–

AUC of viability dose-response curve
Settings	NOMO1 [2]	P12-Ichikawa [3]	SEM cells [4]
HPLM + 10% dialyzed FBS	472	456	457
RPMI 5 mM glucose + 10% FBS	464	461	474
RPMI 5 mM glucose + 10% dialyzed FBS	470	446	450

Cn1cnc2c(F)c(Nc3ccc(Br)cc3Cl)c(C(=O)NOCCO)cc21
AUC of viability dose-response curve
Settings	NOMO1 [2]	P12-Ichikawa [3]	SEM cells [4]
HPLM + 10% dialyzed FBS	260	295	295
RPMI 5 mM glucose + 10% FBS	289	295	278
RPMI 5 mM glucose + 10% dialyzed FBS	258	299	273

COC/1=C/[C@@H]2[C@@H]3CC4=C(C(=C(OC)C=C4)O)[C@]2(CCN3C)CC1=O
cell viability [%]
Settings	HPLM + 10% dialyzed FBS	RPMI 5 mM glucose + 10% FBS	RPMI 5 mM glucose + 10% dialyzed FBS
NOMO1 [5], 0.000781 µM	117	118	–
NOMO1 [5], 0.00234 µM	123	124	–
NOMO1 [5], 0.00702 µM	151	135	–
NOMO1 [5], 0.0211 µM	147	165	–
NOMO1 [5], 0.0632 µM	151	144	–
NOMO1 [5], 0.19 µM	135	148	–
NOMO1 [5], 0.569 µM	147	148	–
NOMO1 [5], 1.71 µM	161	139	–
NOMO1 [5], 5.12 µM	135	153	–
NOMO1 [5], 15.4 µM	131	141	–
NOMO1 [5], 46.1 µM	113	126	–
SEM cells [1], 0.000781 µM	116	–	106
SEM cells [1], 0.00234 µM	121	–	128
SEM cells [1], 0.00702 µM	130	–	121
SEM cells [1], 0.0211 µM	122	–	116
SEM cells [1], 0.0632 µM	133	–	135
SEM cells [1], 0.19 µM	139	–	139
SEM cells [1], 0.569 µM	135	–	146
SEM cells [1], 1.71 µM	119	–	127
SEM cells [1], 5.12 µM	128	–	122
SEM cells [1], 15.4 µM	115	–	137
SEM cells [1], 46.1 µM	129	–	125

AUC of viability dose-response curve
Settings	NOMO1 [2]	P12-Ichikawa [3]	SEM cells [4]
HPLM + 10% dialyzed FBS	476	473	472
RPMI 5 mM glucose + 10% FBS	459	467	469
RPMI 5 mM glucose + 10% dialyzed FBS	471	466	464
